Assay [1] concerns 2HG of fibrosarcoma cell line HT1080 expressing IDH1 mutant IDH1-R132C. Put plainly: Inhibition of 2HG of fibrosarcoma cell line HT1080. It is filed as cell-based. The note with it: Homo sapiens, HT-1080; HT1080 cells, 48 hours with compound, 2HG in cell supernatant; read-out: HT1080 2HG inhibitory IC50. As to the method: In this experiment, the inhibitory activity of the compound of the disclosure on the concentration level of 2HG of the fibrosarcoma cell line HT1080 was determined by the following method.
The cells were digested with trypsin and inoculated into a 24 well cell culture plate with a density of 10000 cells/well. The cells were cultured in a 5% CO2 cell incubator at 37° C. After overnight culture, the test compound was added to the cells. The final concentration of DMSO was 0.1%, and DMSO was used as control. The plate was then placed in a cell incubator and cultured for 48 hours.
Detection of 2HG: 2-HG was measured by PicoProbe™ D-2-Hydroxyglutarate (D2HG) Assay Kit of BioVision. 500 uL cell supernatant was taken from each well and added to a 10 kD centrifuge column, 12000 g, and centrifuged for 10 minutes to remove the effect of enzyme activity. […] IC50 value was calculated by GraphPad Prism software.
The inhibition rate of the sample was obtained by the following formula: […]
IC50 value was calculated by GraphPad Prism software.

A further assay concerns the target IDH1 R132C (Homo sapiens, UniProt O75874, R132C). Put plainly: Effect on IDH1 R132C enzyme activity (NADPH consumption, diaphorase/resazurin fluorescence). It is filed as biochemical. The note with it: 80 ng IDH1 R132C, α-KG 2 mM, NADPH 20 μM, 60 min preincubation. As to the method: (§1) Test method: The enzyme activity of IDH1 converting α-KG to 2HG was measured by the consumption of NADPH. After the enzymatic reaction finished, the amount of residual NADPH can be reflected by fluorescence signal generated by the addition of catalytically excessive diphhorase and reazurin.
50 μL mixed liquid of substrate α-KG and NADPH (final concentration of substrate α-KG was 2 mM, final concentration of NADPH was 20 μM), and the plate was incubated in dark for 60 min at room temperature. Detection reaction: 50 μL 1×detection buffer diluted 0.01 unit diabase and 30 μM resazurin were added into each well, and the mixture was incubated in dark at room temperature for 10 min. […] IC50 value was calculated by GraphPad Prism software.

In the next assay the target is IDH1 R132H (Homo sapiens, UniProt O75874, R132H). Put plainly: Effect on IDH1 R132H enzyme activity (NADPH consumption, diaphorase/resazurin fluorescence). It is filed as biochemical. The note with it: 100 ng IDH1 R132H, α-KG 1 mM, NADPH 20 μM, 60 min preincubation. As to the method: as §1
50 μL mixed liquid of substrate α-KG and NADPH (final concentration of substrate α-KG was 1 mM, final concentration of NADPH was 20 μM), and the mixture was incubated in dark for 60 min at room temperature. Detection reaction: 50 μL 1×detection buffer diluted 0.01 unit diabase and 30 μM resazurin were added into each well, and the mixture was incubated in dark at room temperature for 10 min. […] IC50 value was calculated by GraphPad Prism software.
On the technique in general: Alamar Blue is a resazurin reagent that responds to reducing activity.

The text below walks through data of patent US20210253595A1, “2-Aminopyrimidine Derivative and Preparation Method and Use Thereof” (Etern Biopharma (Shanghai) Co., Ltd., priority 2018, published 2021).

Each structure is given as a SMILES string.

Sequence of IDH1 R132H (O75874 whole entry R132H): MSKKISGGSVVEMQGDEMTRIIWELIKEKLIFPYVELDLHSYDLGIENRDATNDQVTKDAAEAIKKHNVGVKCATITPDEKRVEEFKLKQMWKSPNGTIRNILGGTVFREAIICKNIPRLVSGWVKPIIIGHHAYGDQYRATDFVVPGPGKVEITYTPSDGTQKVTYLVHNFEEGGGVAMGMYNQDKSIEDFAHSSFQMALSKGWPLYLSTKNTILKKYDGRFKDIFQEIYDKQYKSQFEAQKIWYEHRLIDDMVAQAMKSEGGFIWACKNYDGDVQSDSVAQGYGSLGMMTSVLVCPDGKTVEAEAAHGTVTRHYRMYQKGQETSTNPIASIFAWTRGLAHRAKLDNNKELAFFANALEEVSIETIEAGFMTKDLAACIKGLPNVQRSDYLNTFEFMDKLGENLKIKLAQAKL
Sequence of IDH1 R132C (O75874 whole entry R132C): as the sequence (O75874 whole entry R132H) above, with H132C counted along it

As usually defined, the IC50 is the concentration that gives 50% inhibition. For `N#Cc1ccnc(N2C(=O)CC[C@H]2C(=O)N(c2cncc(F)c2)[C@H](C(=O)NC2CC(F)(F)C2)c2ccccc2Cl)c1` [AG120, reference compound], in assay [1], the IC50 was 0.025 µM.
As to `C[C@H](Nc1nccc(N2C(=O)OC[C@@H]2[C@H](C)F)n1)c1ncn2c1COc1cc(Cl)ccc1-2` [Compound 1, (R)-3-(2-((S)-1-(7-chloro-4H-benzo[b]imidazo[1,5-d][1,4]oxazin-3-yl)ethylamino)pyrimidin-4-yl)-4-((S)-1-fluoroethyl)oxazolidin-2-one], the IC50 at IDH1 R132C was below 0.05 µM; against IDH1 R132H it was below 0.05 µM; in assay [1], 0.06 µM.
As to `C[C@H](Nc1nccc(N2C(=O)OC[C@@H]2[C@H](C)F)n1)c1ncn2c1COc1cc(C(F)(F)F)ccc1-2` [Compound 2, (R)-4-((S)-1-fluoroethyl)-3-(2-(((S)-1-(7-trifluoromethyl-4H-benzo[b]imidazo[1,5-d][1,4]oxazin-3-yl)ethyl)amino)pyrimidin-4-yl)oxazolidin-2-one], the IC50 against IDH1 R132C is below 0.05 µM; at IDH1 R132H it was below 0.05 µM; in assay [1] it was 0.012 µM.
Turning to `CC(C)[C@H]1COC(=O)N1c1ccnc(N[C@@H](C)c2ncn3c2CCc2cc(C(F)(F)F)ccc2-3)n1` [Compound 3, (S)-4-isopropyl-3-(2-(((S)-1-(7-trifluoromethyl-4,5-dihydroimidazo[1,5-a]quinolin-3-yl)ethyl)amino)pyrimidin-4-yl)oxazolidin-2-one], the results for the 50% inhibitory concentration (IC50) (against IDH1 R132C; against IDH1 R132H; in assay [1]) were below 0.05 µM, below 0.05 µM and 0.013 µM, respectively.
Consider `C[C@H](Nc1nccc(N2C(=O)OC[C@@H]2[C@H](C)F)n1)c1ncn2c1CCc1cc(Cl)ccc1-2` [Compound 4, (R)-3-(2-(((S)-1-(7-chloro-4,5-dihydroimidazo[1,5-a]quinolin-3-yl)ethyl)amino)pyrimidin-4-yl)-4-((S)-1-fluoroethyl)oxazolidin-2-one], for which the IC50 on IDH1 R132C was below 0.05 µM; against IDH1 R132H, below 0.05 µM; in assay [1], 0.054 µM.
In the case of `C[C@H](Nc1nccc(N2C(=O)OC[C@@H]2[C@H](C)F)n1)c1ncn2c1CCc1cc(C(F)(F)F)ccc1-2` [Compound 5, (R)-4-((S)-1-fluoroethyl)-3-(2-(((S)-1-(7-trifluoromethyl-4,5-dihydroimidazo[1,5-a]quinolin-3-yl)ethyl)amino)pyrimidin-4-yl)oxazolidin-2-one], the IC50 at IDH1 R132C was below 0.05 µM; against IDH1 R132H it was below 0.05 µM; in assay [1], 0.016 µM.
For the compound `C[C@H](Nc1ncc(F)c(N2C(=O)OC[C@@H]2[C@H](C)F)n1)c1ncn2c1CCc1cc(C(F)(F)F)ccc1-2` [Compound 6, (R)-3-(5-fluoro-2-(((S)-1-(7-trifluoromethyl-4,5-dihydroimidazo[1,5-a]quinolin-3-yl)ethyl)amino)pyrimidin-4-yl)-4-((S)-1-fluoroethyl)oxazolidin-2-one], the concentration for half-maximal inhibition (IC50) against IDH1 R132C is below 0.05 µM; against IDH1 R132H, below 0.05 µM; in assay [1] it was 0.02 µM.
As for `C[C@H](Nc1nc(Cl)cc(N2C(=O)OC[C@@H]2[C@H](C)F)n1)c1ncn2c1CCc1cc(C(F)(F)F)ccc1-2` [Compound 7, (R)-3-(6-chloro-2-(((S)-1-(7-trifluoromethyl-4,5-dihydroimidazo[1,5-a]quinolin-3-yl)ethyl)amino)pyrimidin-4-yl)-4-((S)-1-fluoroethyl)oxazolidin-2-one], the half-maximal inhibitory concentration (IC50) was below 0.05 µM against IDH1 R132C, below 0.05 µM on IDH1 R132H and 0.035 µM in assay [1].
Regarding `C[C@H](Nc1nccc(N2C(=O)OC[C@@H]2[C@H](C)F)n1)c1ncn2c1sc1cc(C(F)(F)F)ccc12` [Compound 8, (R)-4-((S)-1-fluoroethyl)-3-(2-(((S)-1-(6-trifluoromethylbenzo[d]imidazo[5,1-b]thiazol-3-yl)ethyl)amino)pyrimidin-4-yl)oxazolidin-2-one], the IC50 was below 0.05 µM against IDH1 R132C, below 0.05 µM against IDH1 R132H and 0.01 µM in assay [1].
`CC(C)[C@H]1COC(=O)N1c1ccnc(N[C@@H](C)c2ncn3c2CCCc2cc(C(F)(F)F)ccc2-3)n1` [Compound 9, (S)-4-isopropyl-3-(2-(((S)-1-(8-trifluoromethyl-5,6-dihydro-4H-benzo[f]imidazo[1,5-a]azepin-3-yl)ethyl)amino)pyrimidin-4-yl)oxazolidin-2-one]: the results for the IC50 (at IDH1 R132C; on IDH1 R132H; in assay [1]) were below 0.05 µM, 0.05 to 0.5 µM and 0.045 µM, respectively.
As for `CC1Cc2c([C@H](C)Nc3nccc(N4C(=O)OC[C@@H]4[C@H](C)F)n3)ncn2-c2ccc(C(F)(F)F)cc21` (stereo partly drawn) [Compound 10, (4R)-4-((S)-1-fluoroethyl)-3-(2-(((1S)-1-(5-methyl-7-trifluoromethyl-4,5-dihydroimidazo[1,5-a]quinolin-3-yl)ethyl)amino)pyrimidin-4-yl)oxazolidin-2-one], the 50% inhibitory concentration (IC50) at IDH1 R132C and at IDH1 R132H was 0.05 to 0.5 µM each time.
With `C[C@H](Nc1nccc(N2C(=O)OC[C@@H]2[C@H](C)F)n1)c1ncn2c1CCc1cc(F)ccc1-2` [Compound 11], the half-maximal inhibitory concentration (IC50) against IDH1 R132C was below 0.05 µM; on IDH1 R132H, 0.05 to 0.5 µM.
With `CC(C)[C@H]1COC(=O)N1c1ccnc(N[C@@H](C)c2ncn3c2CSc2cc(C(F)(F)F)ccc2-3)n1` [Compound 12, (S)-4-isopropyl-3-(2-(((S)-1-(7-trifluoromethyl-4H-benzo[b]imidazo[1,5-d][1,4]thiazin-3-yl)ethyl)amino)pyrimidin-4-yl)oxazolidin-2-one], the IC50 against IDH1 R132C was below 0.05 µM; against IDH1 R132H, below 0.05 µM; in assay [1], 0.024 µM.
Take `CC1Cc2cc(C(F)(F)F)ccc2-n2cnc([C@H](C)Nc3nccc(N4C(=O)OC[C@@H]4[C@H](C)F)n3)c21` (stereo partly drawn) [Compound 14, (4R)-4-((S)-1-fluoroethyl)-3-(2-(((1S)-1-(4-methyl-7-trifluoromethyl-4,5-dihydroimidazo[1,5-a]quinolin-3-yl)ethyl)amino)pyrimidin-4-yl)oxazolidin-2-one]: the IC50 on IDH1 R132C and at IDH1 R132H was 0.05 to 0.5 µM throughout.
As to `CC1Oc2cc(C(F)(F)F)ccc2-n2cnc([C@H](C)Nc3nccc(N4C(=O)OC[C@@H]4[C@H](C)F)n3)c21` (stereo partly drawn) [Compound 15, (4R)-4-((S)-1-fluoroethyl)-3-(2-(((1S)-1-(4-methyl-7-trifluoromethyl-4H-benzo[b]imidazo[1,5-d][1,4]oxazin-3-yl)ethyl)amino)pyrimidin-4-yl)oxazolidin-2-one], the IC50 against IDH1 R132C and at IDH1 R132H was 0.05 to 0.5 µM in each case.
For `C[C@H](Nc1nccc(N2CC3(CC3)OC2=O)n1)c1ncn2c1CCc1cc(C(F)(F)F)ccc1-2` [Compound 19, (S)-6-(2-((1-(7-trifluoromethyl-4,5-dihydroimidazo[1,5-a]quinolin-3-yl)ethyl)amino)pyrimidin-4-yl)-4-oxa-6-azaspiro[2.4]heptan-5-one], the IC50 against IDH1 R132C and against IDH1 R132H was above 0.5 µM in each case.
For `C[C@H](Nc1nccc(N2C(=O)OC[C@@H]2[C@H](C)F)n1)c1ncn2c1COc1cc(F)ccc1-2` [Compound 24, (R)-3-(2-(((S)-1-(7-fluoro-4H-benzo[b]imidazo[1,5-d][1,4]oxazin-3-yl)ethyl)amino)pyrimidin-4-yl)-4-((S)-1-fluoroethyl)oxazolidin-2-one], the IC50 against IDH1 R132C and against IDH1 R132H was below 0.05 µM in each case.
Consider `COc1ccc2c(c1)OCc1c([C@H](C)Nc3nccc(N4C(=O)OC[C@@H]4[C@H](C)F)n3)ncn1-2` [Compound 25, (R)-4-((S)-1-fluoroethyl)-3-(2-(((S)-1-(7-methoxy-4H-benzo[b]imidazo[1,5-d][1,4]oxazin-3-yl)ethyl)amino)pyrimidin-4-yl)oxazolidin-2-one], for which the IC50 on IDH1 R132C and against IDH1 R132H was 0.05 to 0.5 µM throughout.
With `C[C@H](Nc1nccc(N2C(=O)OC[C@@H]2[C@H](C)F)n1)c1ncn2c1COc1cc(C#N)ccc1-2` [Compound 27, 3-((S)-1-((4-((R)-4-((S)-1-fluoroethyl)-2-oxyoxazolidin-3-yl)pyrimidin-2-yl)amino)ethyl)-4H-benzo[b]imidazo[1,5-d][1,4]oxazin-7-nitrile], the IC50 against IDH1 R132C and at IDH1 R132H was 0.05 to 0.5 µM in each case.
With `C[C@H](Nc1nccc(N2C(=O)OC[C@@H]2[C@H](C)F)n1)c1ncn2c1CCc1c(Cl)cccc1-2` [Compound 29, (R)-3-(2-(((S)-1-(6-chloro-4,5-dihydroimidazo[1,5-a]quinolin-3-yl)ethyl)amino)pyrimidin-4-yl)-4-((S)-1-fluoroethyl)oxazolidin-2-one], the IC50 on IDH1 R132C is 0.05 to 0.5 µM; against IDH1 R132H it was below 0.05 µM.
